Assay results: US20090004185A1, “AMINO-SUBSTITUTED QUINAZOLINE DERIVATIVES AS INHIBITORS OF BETA-CATENIN/TCF-4 PATHWAY AND CANCER TREATMENT AGENTS” (WYETH, priority 2007, published 2009)

How the values were obtained:
[1] = tested on: β-catenin/Tcf-4; assay: cells; format: cell-based; conditions: 24 hours of incubation with compound, ratio Firefly/Renilla luciferase
Method in brief: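 SW480-derived lines with integrated reporters (Tcf-4-driven firefly luciferase; SV40 firefly as specificity control; SV40 Renilla for cell number/toxicity), treated 24 hours with titrated compounds, final 0.316% DMSO. Dual-luciferase read-out; firefly/Renilla ratio as % of control, duplicate plates, IC50 (nM) from curve fit.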

[2] = tested on: SV40-Luc; assay: SV40-Luc control luciferase reporter assay, SV 5A8 cell line (SV40-Luc and SV40-R-Luc), control for non-specific inhibitors; format: cell-based, human; conditions: SV 5A8 cells derived from SW480, 24 hours of incubation with compound, ratio Firefly/Renilla luciferase
Method in brief: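 Stable SW480 reporter clones are exposed to compound dilutions for 24 h at 0.316% DMSO. Firefly signal, Tcf-4- or SV40-driven, is divided by SV40-Renilla signal, and IC50 is derived from this ratio relative to control.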

[3] = Homo sapiens, SW480, 24 h, Tcf 33.13 cells derived from SW480
[4] = Homo sapiens, Tcf22C11, 24 h, Tcf 22C11 cells derived from SW480
[5] = Tcf 22C11 cells derived from SW480
[6] = Tcf 33.13 cells derived from SW480

| SMILES | IC50 [1, 3] | IC50 [1, 4] | IC50 ([2]; Homo sapiens, SV5A8, 24 h) | IC50 [1, 5] | IC50 [1, 6] | IC50 [2] |
| --- | --- | --- | --- | --- | --- | --- |
| CNc1nc(NCc2ccc(NC(=O)c3ccc(Cl)cc3Cl)cc2)c2ccccc2n1 [Example 16, 2,4-dichloro-N-[4-({[2-(methylamino)quinazolin-4-yl]amino}methyl)phenyl]benzamide] | 1820 nM | > 2760 nM | > 2760 nM |  |  |  |
| Cc1ccc2c(N[C@H](C)c3ccc(NC(=O)c4ccc(Cl)nc4)cc3)nc(N(C)C)nc2c1 [Example 270, (R)-6-chloro-N-(4-(1-(2-(dimethylamino)-7-methylquinazolin-4-ylamino)ethyl)phenyl)nicotinamide] | 372 nM | 429 nM | > 10100 nM |  |  |  |
| Cc1ccc2c(NCc3ccc(NC(=O)C4CCN(Cc5ncc[nH]5)CC4)cc3)nc(N(C)C)nc2c1 [Example 248, N-[4-({[2-(dimethylamino)-7-methylquinazolin-4-yl]amino}methyl)phenyl]-1-(1H-imidazol-2-ylmethyl)piperidine-4-carboxamide] | > 20100 nM | > 20100 nM | > 20100 nM |  |  |  |
| C=Cc1cccc(-c2ccc3nc(N(C)C)nc(NCc4ccc(C(=O)Nc5ccc(F)cc5)cc4)c3c2)c1 [Example 172] |  |  |  | 397 nM | 308 nM | > 2830 nM |
| CN(C)c1nc(NCc2ccc(C(=O)Nc3ccc(F)cc3)cc2)c2cc(-c3ccc(/C=C/c4ccccc4)cc3)ccc2n1 [Example 173] |  |  |  | > 4510 nM | 4480 nM | > 18000 nM |
| O=C(Nc1ccc(CNc2nc(N3CCCC3)nc3ccc(C(F)(F)F)cc23)cc1)C1CCN(Cc2ccc(F)cc2)CC1 [Example 156, 1-(4-fluorobenzyl)-N-[4-({[2-pyrrolidin-1-yl-6-(trifluoromethyl)quinazolin-4-yl]amino}methyl)phenyl]piperidine-4-carboxamide] | 3690 nM | > 4120 nM | > 8240 nM |  |  |  |
| Cc1ccc2c(NCc3ccc(NC(=O)c4ccc(F)cc4)cc3)nc(N3CCN(Cc4ccc5c(c4)OCO5)CC3)nc2c1 [Example 215, N-{4-[({2-[4-(1,3-benzodioxol-5-ylmethyl)piperazin-1-yl]-7-methylquinazolin-4-yl}amino)methyl]phenyl}-4-fluorobenzamide] | 3190 nM | 1960 nM | > 12000 nM |  |  |  |
| Cc1ccc2c(NCc3ccc(NC(=O)C4CCN(Cc5ccccc5)CC4)cc3)nc(N3CCN(C)CC3)nc2c1 [Example 141, 1-benzyl-N-[4-({[7-methyl-2-(4-methylpiperazin-1-yl)quinazolin-4-yl]amino}methyl)phenyl]piperidine-4-carboxamide] | 1330 nM | 1580 nM | > 17700 nM |  |  |  |
| O=C(Nc1ccc(CNc2nc(NC3CCC3)nc3ccc(C(F)(F)F)cc23)cc1)C1CCN(Cc2ccc(F)cc2)CC1 [Example 159, N-[4-({[2-(cyclobutylamino)-6-(trifluoromethyl)quinazolin-4-yl]amino}methyl)phenyl]-1-(4-fluorobenzyl)piperidine-4-carboxamide] | > 8240 nM | > 8240 nM | > 8240 nM |  |  |  |
| Cc1ccc2c(NCc3ccc(NC(=O)c4ccc(F)cc4)cc3)nc(N3CCN(c4ccccc4)CC3)nc2c1 [Example 212, 4-fluoro-N-[4-({[7-methyl-2-(4-phenylpiperazin-1-yl)quinazolin-4-yl]amino}methyl)phenyl]benzamide] | 2680 nM | 3100 nM | > 12900 nM |  |  |  |
| Cc1ccc2c(N[C@@H](C)c3ccc(NC(=O)c4ccc(F)cc4)cc3)nc(N(C)C)nc2c1 [Example 271, (S)—N-(4-(1-(2-(dimethylamino)-7-methylquinazolin-4-ylamino)ethyl)phenyl)-4-fluorobenzamide] | 1080 nM | 970 nM | > 5640 nM |  |  |  |
| Cc1ccc2nc(N3CCN(c4ccccn4)CC3)nc(NCc3ccc(NC(=O)C4CCN(Cc5ccccc5)CC4)cc3)c2c1 [Example 79, 1-benzyl-N-[4-({[6-methyl-2-(4-pyridin-2-ylpiperazin-1-yl)quinazolin-4-yl]amino}methyl)phenyl]piperidine-4-carboxamide] | 1680 nM | 2350 nM | > 16000 nM |  |  |  |
| Cc1ccc2c(NCc3ccc(NC(=O)Nc4ccc(Br)cc4)cc3)nc(N(C)C)nc2c1 [Example 179, N-(4-bromophenyl)-N′-[4-({[2-(dimethylamino)-7-methylquinazolin-4-yl]amino}methyl)phenyl]urea] | 924 nM | 538 nM | > 4950 nM |  |  |  |

Further compounds by falling IC50 [1, 3], results first:

| IC50 [1, 3] | IC50 [1, 4] | IC50 ([2]; Homo sapiens, SV5A8, 24 h) | IC50 [1, 5] | IC50 [1, 6] | IC50 [2] | SMILES |
| --- | --- | --- | --- | --- | --- | --- |
| 1680 nM | 1920 nM | > 23100 nM |  |  |  | Cc1ccc2c(NCc3ccc(NC(=O)C4CCN(C)CC4)cc3)nc(N(C)C)nc2c1 [Example 243, N-[4-({[2-(dimethylamino)-7-methylquinazolin-4-yl]amino}methyl)phenyl]-1-methylpiperidine-4-carboxamide] |
| 1470 nM | 3780 nM | > 8210 nM |  |  |  | C[C@H](Nc1nc(N(C)C)nc2cc(I)ccc12)c1ccc(NC(=O)c2ccc(Cl)nc2)cc1 [Example 105, 6-chloro-N-[4-((1S)-1-{[2-(dimethylamino)-7-iodoquinazolin-4-yl]amino}ethyl)phenyl]nicotinamide] |
| 664 nM | 1310 nM | > 4990 nM |  |  |  | Cc1ccc2c(NCc3ccc(NC(=O)c4ccc(F)cc4)cc3)nc(N(C)CCCN(C)C)nc2c1 [Example 201, N-{4-[({2-[[3-(dimethylamino)propyl](methyl)amino]-7-methylquinazolin-4-yl}amino)methyl]phenyl}-4-fluorobenzamide] |
| 393 nM | 551 nM | > 9820 nM |  |  |  | C=Cc1ccc2c(N[C@@H](C)c3ccc(NC(=O)c4ccc(Cl)nc4)cc3)nc(N(C)C)nc2c1 [Example 106, 6-chloro-N-[4-((1S)-1-{[2-(dimethylamino)-7-vinylquinazolin-4-yl]amino}ethyl)phenyl]nicotinamide] |
| 332 nM | 568 nM | > 8340 nM |  |  |  | Cc1ccc2c(NCc3ccc(NC(=O)C4CCN(Cc5ccccc5F)CC4)cc3)nc(N(C)C)nc2c1 [Example 252, N-[4-({[2-(dimethylamino)-7-methylquinazolin-4-yl]amino}methyl)phenyl]-1-(2-fluorobenzyl)piperidine-4-carboxamide] |
| 315 nM | 464 nM | > 3220 nM |  |  |  | Cc1ccc2c(NCc3ccc(NC(=O)c4ccc(F)cc4)cc3)nc(N3CCN(c4ncccn4)CC3)nc2c1 [Example 216, 4-fluoro-N-[4-({[7-methyl-2-(4-pyrimidin-2-ylpiperazin-1-yl)quinazolin-4-yl]amino}methyl)phenyl]benzamide] |
| 215 nM | 521 nM | > 7890 nM |  |  |  | Cc1ccc2c(NCc3ccc(NC(=O)C4CCN(Cc5ccc(F)cc5Cl)CC4)cc3)nc(N(C)C)nc2c1 [Example 258, 1-(2-chloro-4-fluorobenzyl)-N-[4-({[2-(dimethylamino)-7-methylquinazolin-4-yl]amino}methyl)phenyl]piperidine-4-carboxamide] |
| 85 nM | 168 nM | > 4590 nM |  |  |  | Cc1ccc2c(NCc3ccc(NC(=O)C4CCN(Cc5ccc(F)cc5F)CC4)cc3)nc(N(C)C)nc2c1 [Example 254, 1-(2,4-difluorobenzyl)-N-[4-({[2-(dimethylamino)-7-methylquinazolin-4-yl]amino}methyl)phenyl]piperidine-4-carboxamide] |
